Source: US20180360917A1, “SINCALIDE FORMULATIONS AND METHODS OF USE” (Apicore LLC, priority 2017, published 2018)

Tests used:
[1] = Stability of Sincalide in 35 mM phosphate buffer over pH 3.0-9.1 (recovery by RP-HPLC); format: physicochemical
Method: Experiments were conducted to determine the effect of pH on the chemical stability of Sincalide. Chemical instability, or degradation, may be caused by, for example, oxidation, reduction, de-amidation, hydrolysis, imide formation, racemization, isomerization, and/or β-elimination. To examine the effect of pH on Sincalide in phosphate buffer solution, solutions of Sincalide (˜1.7, μg/mL) were prepared in 35 mM phosphate buffer and pH-adjusted with either dilute HCl or NaOH for final pH values ranging from 3.0-9.1. Using reverse-phase HPLC (RP-HPLC) with gradient elution and UV detection at 215 nm, Sincalide stability in solution was assessed by measuring the recovery of Sincalide at 0, 6, and 24 hours after pH adjustment.
A 24-hour study on the stability of Sincalide in phosphate buffer over the pH range of 3.0-9.1 was conducted. By measure of the percentage recovery, Sincalide was stable in 35 mM phosphate buffer solution at pH values ranging from 5.0-9.1 over a 24-hour period. At pH values <5.0, Sincalide degradation was evident even at the initial time point.

[2] = Oxidation of Sincalide methionine residues by trace metals with and without EDTA; format: physicochemical
Description: Excipient impurities and/or stopper extractables can introduce trace metals into pharmaceutical formulations. Embodiments of the Sincalide formulations disclosed herein contain stabilizerichelator to inhibit the oxidation of the two methionine residues present in Sincalide (Met 3 and Met 6). Preferred chelators include edetic acid (EDTA) and derivatives thereof, including salts. […] In particular, copper and manganese, in the absence of EDTA, have the greatest oxidative effect on the methionine residues of Sincalide.

gallbladder = conditions: typical, patient pretreated before hepatobiliary imaging; cited from earlier work

pH values at which Sincalide was stable, by percentage recovery ([1]; 35 mM phosphate buffer solution, over a 24-hour period, RP-HPLC UV 215 nm): 5.0-9.1 | pH values at which Sincalide degradation was evident ([1]; 35 mM phosphate buffer, even at the initial time point): < 5.0 | formation of Sincalide Met 3 and Met 6 mono sulfoxides ([2]; presence of EDTA): inhibitory effect | amounts of the degradants Sincalide Met 3 and Met 6 mono sulfoxides ([2]; presence of certain metals, absence of EDTA, copper and manganese greatest oxidative effect): increase
Compound: CSCC[C@H](NC(=O)[C@H](Cc1ccc(OS(=O)(=O)O)cc1)NC(=O)[C@@H](N)CC(=O)O)C(=O)NCC(=O)N[C@@H](Cc1c[nH]c2ccccc12)C(=O)N[C@@H](CCSC)C(=O)N[C@@H](CC(=O)O)C(=O)N[C@@H](Cc1ccccc1)C(N)=O [Sincalide, 1-De(5-oxo-L-glutamine-5-L-proline)-2-de-L-me-thioninecaerulein]
time to gallbladder contraction after injection (gallbladder): ≤ 15 min
